Assay results reported in PubChem BioAssay AID340 (DTP/NCI, 2004).
Where “and” joins values, the source holds several entries; their conditions need not be identical. Equal entries are not always repeated. Toxic doses and inconclusive results are not listed.

System: CD2F1 mice, ip reticulum cell sarcoma, survival T/C
Experiment: NCI In Vivo Anticancer Drug Screen. Data for tumor model Reticulum Cell Sarcoma (Kelley Mouse) (intraperitoneal) in CD2F1 (CDF1) mice
Details: endpoint: median survival time, schedule: Q01DX010 (ip), higher = longer survival
Experimental: The antitumor activity of compounds was measured in mice bearing transplantable tumors. Survival or tumor size were measured and the results are expressed as the measurement made in the treated group (T) divided by the measurement made in the vehicle treated control group (C). The tumor model used in this assay is Reticulum Cell Sarcoma (Kelley Mouse) (intraperitoneal) in CD2F1 (CDF1) mice

[1] = dose: 6.25 mg/kg/injection, vehicle: saline
[2] = dose: 12.5 mg/kg/injection, vehicle: saline
[3] = dose: 25.0 mg/kg/injection, vehicle: saline
[4] = dose: 50.0 mg/kg/injection, vehicle: saline
[5] = dose: 0.25 mg/kg/injection, vehicle: saline
[6] = dose: 0.5 mg/kg/injection, vehicle: saline
[7] = dose: 1.0 mg/kg/injection, vehicle: saline
[8] = dose: 2.0 mg/kg/injection, vehicle: saline
[9] = dose: 4.0 mg/kg/injection, vehicle: saline
[10] = dose: 100.0 mg/kg/injection, vehicle: saline
[11] = dose: 400.0 mg/kg/injection, vehicle: saline
[12] = dose: 62.5 mg/kg/injection, vehicle: saline
[13] = dose: 125.0 mg/kg/injection, vehicle: saline
[14] = dose: 250.0 mg/kg/injection, vehicle: saline
[15] = dose: 500.0 mg/kg/injection, vehicle: saline
[16] = dose: 3.13 mg/kg/injection, vehicle: saline
[17] = dose: 1.25 mg/kg/injection, vehicle: saline
[18] = dose: 2.5 mg/kg/injection, vehicle: saline
[19] = dose: 5.0 mg/kg/injection, vehicle: saline
[20] = dose: 10.0 mg/kg/injection, vehicle: saline
[21] = dose: 20.0 mg/kg/injection, vehicle: saline
[22] = dose: 40.0 mg/kg/injection, vehicle: saline
[23] = dose: 7.8 mg/kg/injection, vehicle: saline
[24] = dose: 15.6 mg/kg/injection, vehicle: saline
[25] = dose: 31.3 mg/kg/injection, vehicle: saline
[26] = dose: 200.0 mg/kg/injection, vehicle: saline
[27] = dose: 1.0 mg/kg/injection, vehicle: other
[28] = dose: 2.0 mg/kg/injection, vehicle: other
[29] = dose: 4.0 mg/kg/injection, vehicle: other
[30] = dose: 8.0 mg/kg/injection, vehicle: other

With CS(=O)(=O)OCCCCOS(C)(=O)=O the T/C [1] was 94 % of control and 105 % of control, the T/C [2] was 97 % of control and 108 % of control and the T/C [3] was 100 % of control and 102 % of control. For the same molecule, the T/C [4] was 100 % of control and 105 % of control.
For Nc1nc(F)nc2c1ncn2C1OC(CO)C(O)C1O (configuration not stated), the T/C [5] was 100 % of control, the T/C [6] was 100 % of control and 105 % of control and the T/C [7] was 91 % of control and 103 % of control. For the same molecule, the T/C [8] was 100 % of control and 105 % of control and the T/C [9] was 88 % of control.
For CC(CCC(C)OS(C)(=O)=O)OS(C)(=O)=O (configuration not stated), the T/C [9] was 100 % of control, the T/C (dose: 8.0 mg/kg/injection, vehicle: saline) was 103 % of control and 106 % of control and the T/C (dose: 16.0 mg/kg/injection, vehicle: saline) was 100 % of control and 109 % of control. The T/C (dose: 32.0 mg/kg/injection, vehicle: saline) was 109 % of control and 112 % of control.
In the case of N#C[C@@H]1C2C=CC(CC2)[C@H]1C#N, the T/C [5] is reported as 97 % of control, the T/C [6] is reported as 102 % of control and 105 % of control and the T/C [7] is reported as 88 % of control and 94 % of control. For the same molecule, the T/C [8] was 97 % of control and 100 % of control.
With CN(C)/N=N/c1nc[nH]c1C(N)=O the T/C [4] was 100 % of control, the T/C [10] was 107 % of control and 120 % of control and the T/C [11] was 100 % of control.
In the case of OCC1OC(n2cnc3c(Cl)ncnc32)C(O)C1O (configuration not stated), the T/C [12] is reported as 97 % of control and 100 % of control, the T/C [13] is reported as 92 % of control and 100 % of control and the T/C [14] is reported as 95 % of control and 102 % of control. For the same molecule, the T/C [15] was 91 % of control and 92 % of control.
With C[C@H]1C(=O)O[C@@H]2CCN3CC=C(COC(=O)[C@](C)(O)[C@@]1(C)O)[C@H]23 the T/C [16] was 103 % of control, the T/C [1] was 100 % of control and the T/C [2] was 103 % of control. For the same molecule, the T/C [3] was 121 % of control.
For O=C(O)c1[nH]c(=O)[nH]c(=O)c1F, the T/C [17] was 91 % of control, the T/C [18] was 94 % of control and the T/C [19] was 97 % of control and 100 % of control. The T/C [20] was 94 % of control and 100 % of control.
CS(=O)(=O)OCCCl was tested, and the T/C (dose: 18.8 mg/kg/injection, vehicle: saline) was 103 % of control, the T/C (dose: 37.5 mg/kg/injection, vehicle: saline) was 106 % of control and 115 % of control and the T/C (dose: 75.0 mg/kg/injection, vehicle: saline) was 100 % of control.
With C[C@@H]1C[C@@H]([C@H](O)CC2CC(=O)NC(=O)C2)C(=O)[C@@H](C)C1 the T/C [19] was 97 % of control and 100 % of control, the T/C [20] was 105 % of control and 108 % of control and the T/C [21] was 120 % of control. For the same molecule, the T/C [22] was 105 % of control.
CCN(CCNc1ccc(C)c2sc3cc(Cl)ccc3c(=O)c12)CC(C)O (configuration not stated) was tested, and the T/C [23] was 94 % of control, the T/C [24] was 94 % of control and the T/C [12] was 94 % of control. The T/C [13] was 88 % of control and the T/C [14] was 88 % of control.
In the case of Nc1c(Br)cc2c(c1Br)Cc1cc([N+](=O)[O-])ccc1-2, the T/C [24] is reported as 100 % of control, the T/C [25] is reported as 100 % of control and the T/C [12] is reported as 88 % of control and 103 % of control. The T/C [13] was 94 % of control and 100 % of control.
CS(=O)(=O)OCC(O)C(O)C(O)C(O)COS(C)(=O)=O (configuration not stated) was tested, and the T/C [3] was 102 % of control, the T/C [4] was 100 % of control and 111 % of control and the T/C [10] was 100 % of control and 102 % of control. The T/C [26] was 100 % of control and 111 % of control and the T/C [11] was 110 % of control.
In the case of Clc1ncnc2nc[nH]c12, the T/C (dose: 7.5 mg/kg/injection, vehicle: saline) is reported as 94 % of control and 111 % of control, the T/C (dose: 15.0 mg/kg/injection, vehicle: saline) is reported as 94 % of control and 100 % of control and the T/C (dose: 30.0 mg/kg/injection, vehicle: saline) is reported as 97 % of control and 102 % of control. For the same molecule, the T/C (dose: 60.0 mg/kg/injection, vehicle: saline) was 100 % of control and 105 % of control.
For N#[N+]c1cnc([O-])[nH]c1=O, the T/C [17] was 100 % of control, the T/C [18] was 100 % of control and 112 % of control and the T/C [19] was 112 % of control and 118 % of control. The T/C [20] was 106 % of control.
C1CN1c1nc(N2CC2)nc(N2CC2)n1 was tested, and the T/C (dose: 0.13 mg/kg/injection, vehicle: saline) was 100 % of control, the T/C [5] was 100 % of control and 103 % of control and the T/C [7] was 123 % of control.
O=C(Nc1ccc(C2=NCCCN2)cc1)c1ccc(NC(=O)c2ccc(C3=NCCCN3)cc2)cc1 was tested, and the T/C [27] was 117 % of control, the T/C [28] was 208 % of control and 222 % of control and the T/C [29] was 177 % of control. For the same molecule, the T/C [30] was 122 % of control.
In the case of CN(C)c1ccc(Nc2c3ccccc3nc3ccccc23)cc1, the T/C (dose: 54.0 mg/kg/injection, vehicle: saline) is reported as 159 % of control and 183 % of control, the T/C (dose: 80.0 mg/kg/injection, vehicle: saline) is reported as 183 % of control and 187 % of control and the T/C (dose: 120.0 mg/kg/injection, vehicle: saline) is reported as 86 % of control.
For CCOC(N)=O, the T/C [13] was 102 % of control, the T/C [14] was 97 % of control and 102 % of control and the T/C [15] was 100 % of control and 102 % of control. The T/C (dose: 1000.0 mg/kg/injection, vehicle: saline) was 88 % of control and 100 % of control.
O=NN(CCCl)C(=O)NCCCl was tested, and the T/C [1] was 194 % of control and 200 % of control and the T/C [2] was 97 % of control and 110 % of control.
COc1ccc2c(c1OC)C(=O)O[C@@H]2[C@H]1c2c(cc3c(c2OC)OCO3)CCN1C was tested, and the T/C [23] was 100 % of control, the T/C [24] was 100 % of control and the T/C [25] was 97 % of control and 102 % of control. For the same molecule, the T/C [12] was 91 % of control and 97 % of control, the T/C [13] was 91 % of control and the T/C [14] was 91 % of control.
With Nc1ncnc2[nH]ncc12 the T/C (dose: 1.5 mg/kg/injection, vehicle: saline) was 100 % of control and 107 % of control, the T/C (dose: 3.0 mg/kg/injection, vehicle: saline) was 100 % of control and 110 % of control and the T/C (dose: 6.0 mg/kg/injection, vehicle: saline) was 105 % of control and 110 % of control. The T/C (dose: 12.0 mg/kg/injection, vehicle: saline) was 97 % of control and 100 % of control.
With O=c1[nH]c(=O)n(C2CC(O)C(CO)O2)cc1F (configuration not stated) the T/C [19] was 156 % of control, the T/C [21] was 171 % of control and the T/C [22] was 187 % of control.
In the case of Nc1nc(N)c2nc(CNc3ccc(C(=O)NC(CCC(=O)O)C(=O)O)cc3)cnc2n1 (configuration not stated), the T/C (dose: 25.0 micrograms/kg/injection, vehicle: other) is reported as 105 % of control and 113 % of control, the T/C (dose: 50.0 micrograms/kg/injection, vehicle: other) is reported as 107 % of control and 121 % of control and the T/C (dose: 100.0 micrograms/kg/injection, vehicle: other) is reported as 110 % of control and 121 % of control. For the same molecule, the T/C (dose: 200.0 micrograms/kg/injection, vehicle: other) was 94 % of control and 113 % of control.
O=C(Nc1ccc(C2=NCCN2)cc1)c1ccc(C(=O)Nc2ccc(C3=NCCN3)cc2)cc1 was tested, and the T/C [29] was 168 % of control, the T/C [30] was 277 % of control and 302 % of control and the T/C (dose: 16.0 mg/kg/injection, vehicle: other) was 242 % of control and 302 % of control. For the same molecule, the T/C (dose: 32.0 mg/kg/injection, vehicle: other) was 166 % of control and 231 % of control and the T/C (dose: 64.0 mg/kg/injection, vehicle: other) was 168 % of control.
In the case of O=C(Nc1ccc(C2=NCCCN2)cc1)c1ccc(C(=O)Nc2ccc(C3=NCCCN3)cc2)cc1, the T/C (dose: 0.5 mg/kg/injection, vehicle: other) is reported as 117 % of control and 120 % of control, the T/C [27] is reported as 186 % of control and 202 % of control and the T/C [28] is reported as 248 % of control.
For CCN(CC)CCNc1ccc(C)c2sc3ccccc3c(=O)c12, the T/C [10] was 106 % of control and the T/C [26] was 103 % of control and 106 % of control.
In the case of Cc1cc(N(CCCl)CCCl)ccc1N=Nc1ccccc1C(=O)O, the T/C [19] is reported as 100 % of control, the T/C [20] is reported as 103 % of control and the T/C [21] is reported as 113 % of control and 122 % of control. The T/C [22] was 106 % of control.
In the case of CCCNc1ncnc2[nH]ncc12, the T/C [16] is reported as 97 % of control and 100 % of control, the T/C [1] is reported as 97 % of control and 100 % of control and the T/C [2] is reported as 97 % of control and 105 % of control. The T/C [3] was 100 % of control and 102 % of control.
With O=[n+]1c2c(n([O-])c3ccccc31)-c1cccc3cccc-2c13 the T/C [3] was 92 % of control and 100 % of control, the T/C [4] was 92 % of control and 106 % of control and the T/C [10] was 100 % of control and 103 % of control. The T/C [26] was 92 % of control and 100 % of control.
With Nc1nc2n[nH]nc2c(=O)[nH]1 the T/C (dose: 200.0 mg/kg/injection, vehicle: alkali diluted with saline) was 115 % of control and 86 % of control.
